Data on 26 compounds can be found in patent US20050148534A1, “Small molecule compositions and methods for increasing drug efficiency using compositions thereof” (priority 2003, published 2005).

One test deals with T1, TK2 (Homo sapiens, UniProt O00142).
T1 sequence (O00142 34-265): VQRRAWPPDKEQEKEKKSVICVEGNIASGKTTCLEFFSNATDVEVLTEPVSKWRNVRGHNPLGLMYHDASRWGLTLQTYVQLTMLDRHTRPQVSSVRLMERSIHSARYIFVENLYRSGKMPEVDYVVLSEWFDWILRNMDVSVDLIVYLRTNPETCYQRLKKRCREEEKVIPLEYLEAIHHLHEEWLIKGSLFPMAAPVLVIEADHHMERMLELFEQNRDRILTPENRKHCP
More on the design: unit not given here. The settings on record: substrate activity, literature (Johansson et al.; Eriksson et al.; Wang et al.), source per Table 3, cited from earlier work.

Test [1] concerns the target deoxycytidine kinase (dCK) (Homo sapiens, UniProt P27707). The note with it: substrate activity; literature (Johansson et al.; Eriksson et al.; Wang et al.), source per Table 3; cited from earlier work.
The next test has as its target T2, TK1 (Homo sapiens, UniProt P04183).
T2 sequence (P04183 1-234): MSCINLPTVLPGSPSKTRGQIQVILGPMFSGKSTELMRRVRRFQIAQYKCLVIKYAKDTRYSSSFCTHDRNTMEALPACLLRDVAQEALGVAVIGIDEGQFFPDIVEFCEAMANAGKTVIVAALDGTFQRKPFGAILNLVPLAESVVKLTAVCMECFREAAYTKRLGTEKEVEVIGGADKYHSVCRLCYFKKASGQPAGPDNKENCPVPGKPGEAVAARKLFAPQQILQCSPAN
The settings on record: substrate activity; literature (Johansson et al.; Eriksson et al., BBCR 1991; 176, 586), source per Table 3; cited from earlier work.

A further test deals with tubulin. Put plainly: Fluorescence-based microtubule polymerization assay (MPA). The format is biochemical. The settings on record: mean percentage of paclitaxel or vinblastine activity; 0.75-10 micromolar. The text has this: Drug-linker constructs may further be screened using functional assays predictive of biological activity. […] Tubulin assembly or inhibition thereof may be monitored by fluorescence using the CytoDYNAMIX Screen™ 10 kit available from Cytoskeleton (1830 S. Acoma St., Denver, Colo.). […] Emission is monitored at 405 nm with excitation at 360 nm. […] Tubulin assembly or inhibition may also be monitored by light scattering which is approximated by the apparent absorption at 350 nm. For paclitaxel drug conjugates BSA is employed to prevent aggregation and glycerol, which is a tubulin polymerization enhancer, is omitted from the kit to increase the signal to noise ratio.
The assay kit (#BK011) was purchased from Cytoskeleton (Denver, Colo.). The assays were carried out according to the manufacturer's instructions, except that 1 mg/ml BSA (Sigma #A3059) was included in all assays. […] Parent drugs and conjugates were tested at 0.75, 1.5, 3 and 10 micromolar final concentration and results represent a comparison of conjugate and parent drug curves obtained from the linear range of the dose responses.

Several values for one entry are separate records, joined by “and”; a condition that tells them apart may be missing. Identical values can stand only once. Like-named read-outs stand apart in the source and are kept apart here. Some results are limits rather than exact numbers.

Chain of deoxycytidine kinase (dCK) (P27707 whole entry, species assumed): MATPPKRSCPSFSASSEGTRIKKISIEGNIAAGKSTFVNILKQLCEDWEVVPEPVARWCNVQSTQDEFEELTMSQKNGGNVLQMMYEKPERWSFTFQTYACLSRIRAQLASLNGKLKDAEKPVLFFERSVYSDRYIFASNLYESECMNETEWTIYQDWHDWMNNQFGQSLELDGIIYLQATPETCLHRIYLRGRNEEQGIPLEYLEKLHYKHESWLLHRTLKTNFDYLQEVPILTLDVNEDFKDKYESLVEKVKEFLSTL

As to `Nc1cc[nH]c(=O)n1` [R4 = OH, R5 = H, R2 = H (Cytosine), Cytosine], the TK2 on TK2 was under 1. In addition, the dCK in test [1] is listed as 20. In addition, the TK1 on TK1 is given as under 1.
Consider `C#C[C@H]1C[C@H](n2cc(C)c(=O)[nH]c2=O)O[C@@H]1CO` [R4 = H, R3 = CCH], for which the TK2 at TK2 is listed as under 1. Moreover, the TK1 on TK1 was under 1.
Regarding `Cc1cn([C@H]2C[C@H](N=[N+]=[N-])[C@@H](CO)O2)c(=O)[nH]c1=O` [R4 = H, R3 = N3 (AZT), AZT], the TK2 at TK2 is listed as 5. For the same compound, the dCK in test [1] is on record as under 1. Further, the TK1 at TK1 is 50 and 40.
`Cc1cn([C@H]2C[C@H](CN=[N+]=[N-])[C@@H](CO)O2)c(=O)[nH]c1=O` [R4 = H, R3 = CH2N3]: the TK2 on TK2 was 3. Also, the TK1 on TK1 was 15.
With `CCc1cn([C@H]2C[C@H](O)[C@@H](CO)O2)c(=O)[nH]c1=O` [R2 = Et, R4 = H, R3 = OH], on TK2, the TK2 is given as 10. At TK1, the TK1 is reported as 80.
Regarding `Cc1cn([C@@H]2O[C@H](CO)[C@@H](O)[C@H]2O)c(=O)[nH]c1=O` [R4 = OH, R3 = OH (RiboThymidine), RiboThymidine], on TK2, the TK2 is reported as 3. Besides, at TK1, the TK1 was 2.
On to `O=c1ccn([C@H]2CC[C@@H](CO)O2)c(=O)[nH]1` [R2 = H, R4 = H, R3 = H (ddU), ddU], for which, at TK2, the TK2 is 2. Besides, the dCK in test [1] is on record as under 1. Besides, the TK1 on TK1 is reported as 10.
Take `CC[C@]1(O)C[C@@H]2CN(CCc3c([nH]c4ccccc34)[C@@](C(=O)OC)(c3cc4c(cc3OC)N(C)[C@H]3[C@@](O)(C(=O)NCCCCCCn5c(=O)c(C)cn([C@H]6C[C@H](O)[C@@H](COP(=O)(O)O)O6)c5=O)[C@H](O)[C@]5(CC)C=CCN6CC[C@]43[C@@H]65)C2)C1` [VBL-3Am-ALK(6)-N3-PhTHY]: the “Ave. MPA Act” value in the test on tubulin was “C (C>100)”.
Same read-out and setting: with “4-deacetyl-3-de-(methoxycarbonyl)-vinblastin-3-yl-N-{N′-Boc-2-[2-[2-[2-ethoxy]ethoxy]ethoxy]ethylamino}-aminocarbonyl) [VBL-3Am-PEG(11)-NH(B)]” the entry was “B (B=60-100)”.
Turning to `Cc1cn([C@H]2C[C@H](O)[C@@H](CO)O2)c(=O)[nH]c1=O` [R4 = H, R3 = OH (Thy), Thy], the TK2 on TK2 is on record as 100. The dCK in test [1] is 2. Moreover, the TK1 on TK1 is 100.
For the compound `O=c1[nH]c(=O)n([C@H]2C[C@H](O)[C@@H](CO)O2)cc1Br` [R2 = Br, R4 = H, R3 = OH], on TK2, the TK2 is listed as 10. The dCK in test [1] is under 1. Moreover, at TK1, the TK1 was 80.
For the compound `O=c1[nH]c(=O)n([C@H]2C[C@H](O)[C@@H](CO)O2)cc1F` [R2 = F, R4 = H, R3 = OH], the TK2 on TK2 is given as 90. For the same compound, the TK1 on TK1 is on record as 90.
On to `Cc1cn([C@H]2CC[C@@H](CO)O2)c(=O)[nH]c1=O` [R4 = H, R3 = H], for which the TK2 on TK2 is 4. Besides, the dCK in test [1] is listed as under 1. Moreover, the TK1 on TK1 is recorded as 40.
Turning to `CC(=O)O[C@H]1C(=O)[C@]2(C)[C@@H](OC(=O)NCCCCCCn3c(=O)c(C)cn([C@H]4C[C@H](O)[C@@H](COP(=O)(O)O)O4)c3=O)C[C@H]3OC[C@@]3(OC(C)=O)[C@H]2[C@H](OC(=O)c2ccccc2)[C@]2(O)C[C@H](OC(=O)[C@H](O)[C@@H](NC(=O)c3ccccc3)c3ccccc3)C(C)=C1C2(C)C` [PXL-7Ca-ALK(6)-N3-PhTHY], the “Ave. MPA Act” value in the test with tubulin is given as “B (B=60-100)”.
The same measure, in the same setting: in the case of `CC[C@]1(O)C[C@@H]2CN(CCc3c([nH]c4ccccc34)[C@@](C(=O)OC)(c3cc4c(cc3OC)N(C)[C@H]3[C@@](O)(C(=O)NN)[C@H](O)[C@]5(CC)C=CCN6CC[C@]43[C@@H]65)C2)C1` [Desacetylvinblastine monohydrazine] it was “C (C>100)”; in that of `CC[C@]1(O)C[C@@H]2CN(CCc3c([nH]c4ccccc34)[C@@](C(=O)OC)(c3cc4c(cc3OC)N(C)[C@H]3[C@@](O)(C(=O)NCCCCCCCCCCCCNC(=O)OC(C)(C)C)[C@H](O)[C@]5(CC)C=CCN6CC[C@]43[C@@H]65)C2)C1` [VBL-3Am-ALK(12)-NH(B)], “A (A<60)”; in that of `CC(=O)O[C@H]1C(=O)[C@]2(C)[C@@H](OC(=O)NCCCCCCn3c(=O)c(C)cn([C@@H]4C[C@H](O)[C@@H](CO)O4)c3=O)C[C@H]3OC[C@@]3(OC(C)=O)[C@H]2[C@H](OC(=O)c2ccccc2)[C@]2(O)C[C@H](OC(=O)[C@H](O)[C@@H](NC(=O)c3ccccc3)c3ccccc3)C(C)=C1C2(C)C` [PXL-7Ca-ALK(6)-N3-αTHY], “B (B=60-100)”.
As for `O=c1[nH]c(=O)n([C@@H]2O[C@H](CO)[C@@H](O)[C@@H]2F)cc1I` [R2 = I, R5 = F (FIAU), FIAU], the TK2 on TK2 is listed as 90. Besides, at TK1, the TK1 was 42.
For the compound `CC(=O)O[C@H]1C(=O)[C@]2(C)[C@@H](OC(=O)CCCCCN)C[C@H]3OC[C@@]3(OC(C)=O)[C@H]2[C@H](OC(=O)c2ccccc2)[C@]2(O)C[C@H](OC(=O)[C@H](O)[C@@H](NC(=O)c3ccccc3)c3ccccc3)C(C)=C1C2(C)C` [PXL-7Es-ALK(5)-NH2], the “Ave. MPA Act” value in the test on tubulin was “A (A<60)”.
Turning to `Nc1ccn([C@H]2C[C@H](O)[C@@H](CO)O2)c(=O)n1` [R4 = H, R5 = H, R3 = OH (dC), dC], the TK2 at TK2 was 90; at TK2 (listed as R2 = H, X = C (dC)) it was 90; at TK2 (listed as R4 = H, R5 = H, R2 = H (dC)), 90; at TK2 (listed as β-D-dC) it was 93. In addition, the TK1 at TK1 is recorded as under 1.
For `Cc1cn([C@@H]2O[C@H](CO)[C@@H](O)[C@@H]2F)c(=O)[nH]c1=O` [R2 = CH3, R5 = F (FMAU), FMAU], the TK2 on TK2 is reported as 100. The TK1 on TK1 is listed as 45.
In the case of `Cc1cn([C@H]2C[C@H](F)[C@@H](CO)O2)c(=O)[nH]c1=O` [R4 = H, R3 = F (FLT), FLT], the TK2 on TK2 is on record as under 1. For the same compound, the dCK in test [1] is on record as under 1. The TK1 at TK1 is listed as 30.
On to `CC[C@]1(O)C[C@@H]2CN(CCc3c([nH]c4ccccc34)[C@@](C(=O)OC)(c3cc4c(cc3OC)N(C)[C@H]3[C@@](O)(C(=O)NCCCCCCN)[C@H](O)[C@]5(CC)C=CCN6CC[C@]43[C@@H]65)C2)C1` [VBL-3Am-ALK(6)-NH2], for which the “Ave. MPA Act” value in the test with tubulin is given as “C (C>100)”.
On to `Nc1ccn([C@@H]2O[C@H](CO)[C@@H](O)[C@@H]2O)c(=O)n1` [R4 = H, R5 = OH, R3 = OH (Cytosar, AraC), AraC], for which the TK2 at TK2 is under 1. Further, the TK1 at TK1 was under 1.
Take `CC(=O)O[C@H]1C(=O)[C@]2(C)[C@@H](OC(=O)NCCCCCCN)C[C@H]3OC[C@@]3(OC(C)=O)[C@H]2[C@H](OC(=O)c2ccccc2)[C@]2(O)C[C@H](OC(=O)[C@H](O)[C@@H](NC(=O)c3ccccc3)c3ccccc3)C(C)=C1C2(C)C` [PXL-7Ca-ALK(6)-NH2]: in the test with tubulin, the “Ave. MPA Act” value was “A (A<60)”.
For `O=c1ccn([C@H]2C[C@H](O)[C@@H](CO)O2)c(=O)[nH]1` [R2 = H, R4 = H, R3 = OH (dU), dU], the TK2 at TK2 is reported as 100. Further, in test [1], the dCK was 6. The TK1 on TK1 was 100.
